Common to all, as to assay: NCI-60 cell line screen, 48 h
In experiment [1] the test system is 786-0 renal.
The subject of experiment [2] is SR leukemia.
In experiment [3] the test system is MDA-MB-435.
Experiment [4] has as its system TK-10 renal.
Experiment [5] concerns A549 NSCLC.
The subject of experiment [6] is OVCAR-4 ovarian.
Experiment [7] relates to HCT-15 colon.
Experiment [8] has as its system UO-31 renal.
Experiment [9] deals with OVCAR-3 ovarian.
Experiment [10] has as its system MCF7 breast.

Among the data in PubChem BioAssay (NCI) are TGI and GI50 values, retold here.

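Test compounds were applied to cells in 96-well plates for 48 hours at 5 doses. Abbreviation: GI50, concentration required for 50% inhibition of growth. TGI: concentration producing complete growth inhibition.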

For `C[C@]12CC[C@H]3[C@@H](CC[C@]4(O)C[C@@H](O)CC[C@]34C=O)[C@@]1(O)CC[C@@H]2C1=CC(=O)OC1`, the TGI is > 100 µM in experiment [1]; > 100 µM in [2]; 1.83 µM in experiment [3]; 1.63 µM in experiment [4]; 0.408 µM in experiment [5]; 2.33 µM in experiment [6]. Also, the TGI worked out at 1.47 µM in experiment [7], 2.91 µM in experiment [8] and 1.55 µM in experiment [9].
Turning to `[N-]=[N+]=C(C(=O)CN1CCCC1=O)S(=O)(=O)c1ccccc1`, the TGI in experiment [1], in experiment [2], in [3], in experiment [10], in experiment [4] and in experiment [5] was > 100 µM throughout. Further, the TGI in [7], in experiment [8] and in [9] was > 100 µM in each case.
Take `O=C1c2ccccc2C(=O)N1CC#CCO`: the TGI in experiment [1], in experiment [2], in experiment [4], in [5], in [6] and in [7] was > 100 µM in each case. Further, the TGI in experiment [8] and in experiment [9] was > 100 µM throughout.
Take `O=C(CC12C3C4C1C1C2C3C41CC(=O)NO)NO` (centres undefined): the TGI in experiment [1], in experiment [2], in experiment [4], in [5], in [7] and in experiment [9] was > 100 µM throughout.
`Cc1[nH]nc(C(F)(F)F)c1Cc1sc2c(c1C(=O)N1C[C@](C)(O)CO1)c(=O)n(C)c(=O)n2C(C)C`: the GI50 in [1], in [3], in experiment [10], in experiment [4], in [5] and in [6] was > 100 µM in each case. In addition, the GI50 in experiment [7], in experiment [8] and in experiment [9] was > 100 µM in each case. For the same compound, the TGI in experiment [1], in experiment [3], in [10], in [4], in [5] and in experiment [6] was > 100 µM each time. Further, the TGI in experiment [7], in experiment [8] and in experiment [9] was > 100 µM in each case.
On to `CSc1ccc(N2C(=O)C3c4[nH]c5ccccc5c4C4CCC(C(C)(C)C)CC4C3C2=O)cc1` (centres undefined), for which the TGI in experiment [1] is 29.1 µM; in [2] it was 23.2 µM; in [4] it was 40.5 µM; in [5], 33.5 µM; in [6] it was 24.9 µM; in [7], > 100 µM. Also, the TGI in [8] is 40.7 µM; in experiment [9], > 100 µM.
As to `CCCCCCC(=O)NC1=C(N2CC2)C(=O)C(NC(=O)CCCCCC)=C(N2CC2)C1=O`, the GI50 is 4.25 µM in experiment [1]; 1.06 µM in experiment [2]; 1.56 µM in [3]; 2.06 µM in experiment [10]; 20.2 µM in experiment [4]; 2.79 µM in experiment [5]. For the same compound, the GI50 is 3.11 µM in experiment [6], 6.15 µM in [8] and 1.53 µM in experiment [9]. For the same compound, the TGI in experiment [1] is > 100 µM; in [2], > 100 µM; in [3], 3.11 µM; in [10], > 100 µM; in experiment [4] it was 72.9 µM; in [5] it was > 100 µM. Moreover, the TGI in experiment [6] was > 100 µM; in experiment [8] it was > 100 µM; in experiment [9] it was 4.85 µM.
In the case of `CCOC(=O)C1=C(Nc2ccc(OC)cc2)C(N)=NC1=N`, the GI50 in experiment [1] was 5.04 µM; in [2], 2.31 µM; in experiment [3], 0.336 µM; in experiment [10], 0.587 µM; in [4], 8.31 µM; in experiment [5], 3.73 µM. The GI50 in experiment [7] is 1.83 µM; in [8], 6.29 µM; in [9] it was 2.49 µM. Moreover, the TGI in [1] was > 100 µM; in experiment [2] it was > 100 µM; in experiment [3] it was 1.5 µM; in [10], > 100 µM; in experiment [4], > 100 µM; in [5] it was > 100 µM. Also, the TGI in experiment [7] was > 100 µM; in [8], > 100 µM; in experiment [9], 6.5 µM.
As to `O=C1CCC2(O)c3ccccc3C2Cc2ccccc21` (centres undefined), the TGI in [1], in [2], in experiment [4] and in experiment [9] was > 100 µM each time.
Take `COc1ccc(C(C2=C(O)CC(C)OC2=O)C2=C(O)CC(C)OC2=O)cc1` (centres undefined): the TGI in experiment [1], in experiment [2], in experiment [5], in experiment [6], in experiment [7] and in experiment [8] was > 100 µM in each case. Further, the TGI in experiment [9] was > 100 µM.
Consider `CC1(C)CC(=O)C(CC2C(=O)CCCC2=O)C(=O)C1`, for which the TGI in [1], in experiment [2], in [4], in experiment [5], in experiment [6] and in experiment [7] was > 100 µM in each case. The TGI in experiment [8] and in experiment [9] was > 100 µM in each case.
On to `O=[N+]([O-])c1ccc2c(c1)C(N1CCN(CCO)CC1)Cc1ccc(F)cc1S2` (centres undefined), for which the TGI came to 26.4 µM in [1]; 20.6 µM in experiment [2]; 28.8 µM in experiment [10]; 27.8 µM in experiment [4]; 26.3 µM in [5]; 33.5 µM in experiment [6]. Also, the TGI worked out at 19 µM in experiment [7], 18.1 µM in experiment [8] and 54.6 µM in [9].
In the case of `CCC(O)CCCCCCCCCCCCCCC(=O)O` (centres undefined), the TGI in [1], in [2], in [4], in [5], in [6] and in [8] was > 100 µM throughout. In addition, the TGI in experiment [9] is > 100 µM.
